Assay results: ChEMBL document CHEMBL4699534, “Optimizing PEG-Extended Apelin Analogues as Cardioprotective Drug Leads: Importance of the KFRR Motif and Aromatic Head Group for Improved Physiological Activity” (J Med Chem, 2020)
Non-standard residues stand in square brackets, D forms with d. Residues, ends and D or L forms follow the SMILES beside them. *: point of attachment. PEG10 = NCCOCCOCCOCCOCCOCCOCCOCCOCCOCCOCCC(=O)O; Bpa = N[C@@H](Cc1ccc(C(=O)c2ccccc2)cc1)C(=O)O; Phe(4-Br) = N[C@@H](Cc1ccc(Br)cc1)C(=O)O; PEG7 = NCCOCCOCCOCCOCCOCCOCCOCCC(=O)O; Fmoc = O=C(OCC1c2ccccc2-c2ccccc21)*; NMeR = CN[C@@H](CCCNC(=N)N)C(=O)O; NMeL = CN[C@@H](CC(C)C)C(=O)O; PEG3 = NCCOCCOCCOCCC(=O)O; Nle = CCCC[C@H](N)C(=O)O; Aib = CC(C)(N)C(=O)O

Assays:
[1] = Half life in human plasma at 400 uM by HPLC analysis; format: ADME, cell-free
[2] = target: T1, Apelin receptor (Homo sapiens, UniProt P35414); test: Activation of APJ receptor (unknown origin) expressed in Chem-5 cells assessed as stimulation of Ca2+ mobilization by Calcium 6-GF dye based fluorescence based assay; format: functional, cell-based
T1 sequence (P35414 whole entry): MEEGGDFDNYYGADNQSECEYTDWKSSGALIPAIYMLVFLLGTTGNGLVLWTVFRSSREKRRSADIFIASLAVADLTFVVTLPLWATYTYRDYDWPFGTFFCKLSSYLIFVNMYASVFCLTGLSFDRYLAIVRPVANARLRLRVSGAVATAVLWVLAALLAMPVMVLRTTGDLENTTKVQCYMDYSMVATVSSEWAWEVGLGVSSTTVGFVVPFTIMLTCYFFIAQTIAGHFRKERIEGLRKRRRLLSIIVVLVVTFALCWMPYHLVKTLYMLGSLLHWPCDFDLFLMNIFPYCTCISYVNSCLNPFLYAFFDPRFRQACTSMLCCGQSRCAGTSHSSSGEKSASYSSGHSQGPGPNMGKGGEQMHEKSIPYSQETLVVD

[3] = target: T2, Apelin receptor (Rattus norvegicus, UniProt Q9JHG3); test: Displacement of [125I]-pyr-1-apelin-13 from EGFP-tagged wild-type rat apelin receptor expressed in CHO cell membranes by gamma counting method; parameters: species or system Cell membrane
T2 sequence (Q9JHG3 whole entry): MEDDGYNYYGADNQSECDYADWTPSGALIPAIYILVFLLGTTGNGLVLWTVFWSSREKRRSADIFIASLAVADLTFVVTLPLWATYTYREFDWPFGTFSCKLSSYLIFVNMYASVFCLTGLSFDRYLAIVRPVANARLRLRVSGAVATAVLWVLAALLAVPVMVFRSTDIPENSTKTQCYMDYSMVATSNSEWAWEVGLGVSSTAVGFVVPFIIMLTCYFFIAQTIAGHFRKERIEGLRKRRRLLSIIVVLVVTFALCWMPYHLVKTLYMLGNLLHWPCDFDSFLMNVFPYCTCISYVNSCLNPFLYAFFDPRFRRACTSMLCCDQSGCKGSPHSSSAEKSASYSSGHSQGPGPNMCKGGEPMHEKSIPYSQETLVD

[4] = system: Mus musculus; test: Cardioprotective activity in C57BL/6 mouse assessed as reduction in mean arterial blood pressure at 1.4 uM/kg, iv measured after 15 mins relative to control; format: functional; settings: 0.25 h

SMILES | half-life at 400 µM [1] | EC50 [2] | IC50 [3] | Activity [4]
CCCC[C@H](NC(=O)[C@@H]1CCCN1C(=O)CNC(=O)[C@H](CCCCN)NC(=O)[C@H](Cc1c[nH]cn1)NC(=O)[C@H](CO)NC(=O)[C@H](CC(C)C)N(C)C(=O)[C@H](CCCNC(=N)N)NC(=O)[C@@H]1CCCN1C(=O)[C@H](CCCNC(=N)N)NC(=O)[C@H](CCC(N)=O)NC(=O)[C@H](CCCNC(=N)N)NC(=O)[C@H](CCCNC(=N)N)NC(=O)[C@H](Cc1ccccc1)NC(=O)[C@H](CCCCN)NC(=O)CCOCCOCCOCCOCCOCCOCCOCCNC(=O)[C@@H](N)Cc1ccc(C(=O)c2ccccc2)cc1)C(=O)NC(C)(C)C(=O)N[C@@H](Cc1ccc(Br)cc1)C(=O)O (H-[Bpa][PEG7]KFRRQRPR[NMeL]SHKGP[Nle][Aib][Phe(4-Br)]-OH) | 8.2 h | 89.1 nM | 1.29 nM | 43 mmHg
CCCC[C@H](NC(=O)[C@@H]1CCCN1C(=O)CNC(=O)[C@H](CCCCN)NC(=O)[C@H](Cc1c[nH]cn1)NC(=O)[C@H](CO)NC(=O)[C@H](CC(C)C)N(C)C(=O)[C@H](CCCNC(=N)N)NC(=O)[C@@H]1CCCN1C(=O)[C@H](CCCNC(=N)N)NC(=O)[C@H](CCC(N)=O)NC(=O)[C@H](CCCNC(=N)N)NC(=O)[C@H](CCCNC(=N)N)NC(=O)[C@H](Cc1ccccc1)NC(=O)[C@H](CCCCN)NC(=O)CCOCCOCCOCCOCCOCCOCCOCCOCCOCCOCCNC(=O)OCC1c2ccccc2-c2ccccc21)C(=O)NC(C)(C)C(=O)N[C@@H](Cc1ccc(Br)cc1)C(=O)O ({Fmoc-PEG10}-KFRRQRPR[NMeL]SHKGP[Nle][Aib][Phe(4-Br)]-OH) | 17.2 h | 4.9 nM | 2.4 nM | 28 mmHg
CCCC[C@H](NC(=O)[C@@H]1CCCN1C(=O)CNC(=O)[C@H](CCCCN)NC(=O)[C@H](Cc1c[nH]cn1)NC(=O)[C@H](CO)NC(=O)[C@H](CC(C)C)N(C)C(=O)[C@H](CCCNC(=N)N)NC(=O)[C@@H]1CCCN1C(=O)[C@H](CCCNC(=N)N)NC(=O)[C@H](CCC(N)=O)NC(=O)[C@H](CCCNC(=N)N)NC(=O)[C@H](CCCNC(=N)N)NC(=O)[C@H](Cc1ccccc1)NC(=O)[C@H](CCCCN)NC(=O)CCOCCOCCOCCOCCOCCOCCOCCNC(=O)[C@@H](N)Cc1ccccc1)C(=O)NC(C)(C)C(=O)N[C@@H](Cc1ccc(Br)cc1)C(=O)O (H-F[PEG7]KFRRQRPR[NMeL]SHKGP[Nle][Aib][Phe(4-Br)]-OH) | 6.4 h | 25.7 nM | 1.7 nM | 24 mmHg

Continued, in another order:

half-life at 400 µM [1] | EC50 [2] | IC50 [3] | SMILES | Activity [4]
5.2 h | 3.47 nM | 1.51 nM | CCCC[C@H](NC(=O)[C@@H]1CCCN1C(=O)CNC(=O)[C@H](CCCCN)NC(=O)[C@H](Cc1c[nH]cn1)NC(=O)[C@H](CO)NC(=O)[C@H](CC(C)C)N(C)C(=O)[C@H](CCCNC(=N)N)NC(=O)[C@@H]1CCCN1C(=O)[C@H](CCCNC(=N)N)NC(=O)[C@H](CCC(N)=O)NC(=O)[C@H](CCCNC(=N)N)N(C)C(=O)[C@H](CCCNC(=N)N)NC(=O)[C@H](Cc1ccccc1)NC(=O)[C@@H](N)CCCCN)C(=O)NC(C)(C)C(=O)N[C@@H](Cc1ccc(Br)cc1)C(=O)O (H-KFR[NMeR]QRPR[NMeL]SHKGP[Nle][Aib][Phe(4-Br)]-OH) | 14 mmHg
2 h | 17 nM | 2.51 nM | CCCC[C@H](NC(=O)[C@@H]1CCCN1C(=O)CNC(=O)[C@H](CCCCN)NC(=O)[C@H](Cc1c[nH]cn1)NC(=O)[C@H](CO)NC(=O)[C@H](CC(C)C)N(C)C(=O)[C@H](CCCNC(=N)N)NC(=O)[C@@H]1CCCN1C(=O)[C@H](CCCNC(=N)N)NC(=O)[C@H](CCC(N)=O)NC(=O)[C@H](CCCNC(=N)N)NC(=O)[C@H](CCCNC(=N)N)NC(=O)[C@H](Cc1ccccc1)NC(=O)[C@H](CCCCN)NC(=O)CCOCCOCCOCCNC(=O)OCC1c2ccccc2-c2ccccc21)C(=O)NC(C)(C)C(=O)N[C@@H](Cc1ccc(Br)cc1)C(=O)O ({Fmoc-PEG3}-KFRRQRPR[NMeL]SHKGP[Nle][Aib][Phe(4-Br)]-OH) | 32 mmHg
